Holding throughout (assay): growth of human tumour cells (NCI), 48 h
Assay [1] relates to A549 NSCLC.
Assay [2] deals with DU-145 prostate.
For assay [3], the system named is HCT-15 colon.
Assay [4] deals with IGROV1 ovarian.
In assay [5] the test system is KM12 colon.
The subject of assay [6] is LOX IMVI melanoma.
Assay [7] deals with NCI-H460 lung.
Assay [8] concerns NCI-H522 lung.
The subject of assay [9] is OVCAR-4 ovarian.
For assay [10], the system named is OVCAR-8 ovarian.
Assay [11] has as its system SF-539 CNS.
Assay [12] deals with SK-OV-3 ovarian.
Assay [13] concerns TK-10 renal.
In assay [14] the test system is UACC-257 melanoma.
Assay [15] relates to UACC-62 melanoma.
For assay [16], the system named is OVCAR-3 ovarian.

The values below come from PubChem BioAssay (NCI).

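48-hour exposure; five concentrations; linearly interpolated endpoints. The concentration for full growth arrest is given as TGI.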 A value given as a limit tells only on which side of the number the result lay.

As to `C=C(C)[C@@H]1C[C@H]2O[C@](O)(C(=C)CC(=O)/C=C(/C)C[C@@H]3OC(=O)[C@]24O[C@@H]34)[C@H]1O`, the TGI in assay [1], in assay [2], in assay [3], in assay [4], in assay [5] and in assay [6] was more than 100 µM throughout. Moreover, the TGI in [7], in [8], in [9], in assay [10], in [11] and in assay [12] was more than 100 µM throughout. Besides, the TGI in assay [13], in assay [14] and in assay [15] was more than 100 µM in each case.
Take `CSc1ccccc1P(c1ccccc1SC)c1ccccc1SC`: the TGI in assay [1], in assay [2], in assay [3], in assay [5], in [6] and in assay [9] was more than 100 µM in each case. For the same molecule, the TGI in assay [10], in assay [11], in assay [12], in assay [13] and in assay [15] was more than 100 µM in each case.
For `N#Cc1nc(C2CC2)oc1N`, the TGI in assay [1], in assay [2], in assay [3], in assay [4], in assay [5] and in assay [6] was more than 100 µM throughout. The TGI in assay [8], in assay [16], in [9], in assay [10], in assay [11] and in assay [12] was more than 100 µM each time. Also, the TGI in assay [13], in assay [14] and in assay [15] was more than 100 µM in each case.
On to `Cc1c(/C=N/NC(=S)Nc2cccc(Cl)c2)c(=O)n(-c2ccccc2)n1C`, for which the TGI in [2] is 66.9 µM; in assay [3], more than 100 µM; in assay [4], 42.4 µM; in assay [5] it was more than 100 µM; in assay [6], more than 100 µM; in assay [7], 21.8 µM. In addition, the TGI in assay [9] is 40 µM; in [10], 35.6 µM; in assay [11], 33 µM; in assay [12], 38.2 µM; in assay [13], 44.3 µM; in assay [14] it was more than 100 µM. Moreover, the TGI in assay [15] was more than 100 µM.
`Cc1ccc(N/C(Sc2ccccc2)=C(/C(Cl)=C(Cl)Cl)[N+](=O)[O-])c(C)c1`: the TGI in [1] was more than 81.5 µM; in [2] it was more than 87.1 µM; in assay [3], 32.3 µM; in [4] it was 40.2 µM; in assay [5] it was 32.2 µM; in assay [6] it was 28.2 µM. Further, the TGI in assay [7] is 32.7 µM; in assay [8] it was 42.9 µM; in [9], more than 100 µM; in assay [10], more than 100 µM; in assay [11], 45.4 µM; in [12] it was 99.2 µM. Moreover, the TGI in [13] is more than 100 µM; in assay [14] it was 38.2 µM; in assay [15], 62.2 µM.
`COc1ccc(C2=C(Cl)c3cc(OC)c(OC)cc3C2=O)cc1OC`: the TGI in assay [1] is more than 100 µM; in assay [2] it was 32.7 µM; in [3], 20.7 µM; in [4], 32.1 µM; in assay [5] it was 32.2 µM; in assay [6] it was 24.7 µM. For the same molecule, the TGI in assay [8] was 27 µM; in assay [16] it was 6.56 µM; in assay [9] it was 25.5 µM; in assay [10], 31.9 µM; in assay [11], 35.9 µM; in assay [12] it was 36.9 µM. Besides, the TGI in assay [13] worked out at 25.6 µM; in assay [14], 15.5 µM; in assay [15] it was 29.6 µM.
Turning to `Nc1ccc(-c2ncc3cc(-c4cccc(-c5cc6cnc(-c7ccc(N)cc7)nc6c6ccccc56)c4)c4ccccc4c3n2)cc1`, the TGI in assay [1], in assay [2], in assay [3], in [4], in assay [5] and in assay [6] was more than 100 µM throughout. Further, the TGI in assay [7], in assay [8], in [16], in [10], in assay [11] and in [12] was more than 100 µM each time. The TGI in assay [13], in assay [14] and in assay [15] was more than 100 µM throughout.
Consider `c1cc(-c2csc(-c3ccsc3)c2)cs1`, for which the TGI in [1], in [2], in assay [3], in assay [4], in [5] and in assay [6] was more than 100 µM each time. Further, the TGI in assay [7], in [16], in assay [9], in assay [10], in assay [11] and in assay [12] was more than 100 µM each time. The TGI in [13], in assay [14] and in [15] was more than 100 µM each time.
On to `COc1cc(O)c2c(=O)c(OC)c(-c3ccc4c(c3)OCO4)oc2c1`, for which the TGI in [1], in assay [2], in [3], in [4], in [5] and in assay [6] was more than 100 µM throughout. Besides, the TGI in [7] is more than 100 µM; in assay [8], more than 100 µM; in assay [10], more than 100 µM; in [11] it was more than 74.9 µM; in assay [12], 81 µM; in assay [13], more than 100 µM. Further, the TGI in assay [14] and in assay [15] was more than 100 µM throughout.
Regarding `CC1=NN(c2nc(N)nc(/C(C#N)=C/c3ccc([N+](=O)[O-])o3)n2)C(C)(C)C1`, the TGI is 29.8 µM in assay [1]; 17 µM in assay [2]; 3.82 µM in assay [4]; 28.1 µM in [5]; 3.07 µM in assay [6]; 10.8 µM in assay [7]. The TGI in assay [16] is 11.1 µM; in [9] it was 25.7 µM; in assay [10], 8.91 µM; in [11], 12 µM; in assay [12], more than 52.3 µM; in assay [13], 4.52 µM. Further, the TGI in assay [14] came out at 27.2 µM; in [15], 5.31 µM.
`CCC[C@H](O)[C@@H](CNc1cc(NC(C)=O)nc(NC(C)=O)n1)N(Cc1ccccc1)Cc1ccccc1`: the TGI was 72.1 µM in [1]; more than 100 µM in assay [2]; more than 100 µM in assay [3]; 50.9 µM in assay [4]; 39.1 µM in assay [5]; more than 100 µM in assay [6]. In addition, the TGI is more than 100 µM in assay [7]; 27.2 µM in [8]; 55.6 µM in [16]; more than 100 µM in [9]; 35.1 µM in [10]; 63.4 µM in [12]. Moreover, the TGI in assay [13] was 45.1 µM; in assay [14], more than 100 µM; in [15], 57 µM.
Take `O=C1c2cccc3cccc(c23)C(=O)N1CCCNCCCCNCCCN1C(=O)c2cccc3cccc(c23)C1=O`: the TGI turned out to be 0.833 µM in [1]; 1.14 µM in assay [2]; 13.8 µM in assay [3]; 1.83 µM in assay [4]; 3.66 µM in assay [5]; 0.255 µM in [6]. The TGI in assay [8] was determined as 0.0803 µM; in assay [16] it was 4.58 µM; in [9] it was 1.93 µM; in [10], 2.24 µM; in [11] it was 1.57 µM; in assay [12] it was 6.65 µM. For the same molecule, the TGI in assay [13] is 7.62 µM; in assay [14], 1.91 µM; in [15] it was 1.44 µM.
Consider `COc1ccc(-c2cc(-c3ccc(Cl)cc3)n(C3OC(CO)C(O)C(O)C3O)c(=S)c2C#N)cc1` (centres undefined), for which the TGI in assay [2], in assay [3], in assay [4], in assay [5], in assay [6] and in assay [7] was more than 100 µM each time. For the same molecule, the TGI in [9] is more than 100 µM; in [10], more than 100 µM; in [11], more than 100 µM; in [12] it was more than 100 µM; in assay [13], 82.8 µM; in assay [14], more than 100 µM. For the same molecule, in assay [15], the TGI is more than 100 µM.
With `COc1cccc(/C(CC(O)(C(F)(F)F)C(F)(F)F)=N\N(C)C)c1`, the TGI in [1], in assay [2], in assay [3], in assay [4], in [5] and in [6] was more than 100 µM each time. Moreover, the TGI in assay [7], in [8], in assay [16], in assay [9], in assay [11] and in assay [12] was more than 100 µM each time. Besides, the TGI in assay [13] and in assay [15] was more than 100 µM throughout.
